Results: US6737383B1, “Herbicidal oxadiazolidines” (priority 1999, dated 2004)

Experiments:
cocklebur = test: Test B pre/postemergence cocklebur; assay type: in vivo, Xanthium strumarium
How it was run: (§1)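 Herbicidal effect was estimated by eye on a ten-point control scale after plants spent twelve to sixteen days in a greenhouse following soil or foliar treatment. Foliar sprays targeted plants at one to four leaves; all doses were formulated in a non-phytotoxic solvent with surfactant.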

blackgrass = test: Test B pre/postemergence blackgrass; assay type: in vivo, Alopecurus myosuroides
How it was run: as §1

wild oat = test: Test B pre/postemergence wild oat; assay type: in vivo, Avena fatua
How it was run: as §1

morningglory = test: Test B pre/postemergence morningglory; assay type: in vivo, Ipomoea hederacea
How it was run: as §1

bedstraw = test: Test B pre/postemergence bedstraw; assay type: in vivo, Galium aparine
How it was run: as §1

surinam grass = test: Test B pre/postemergence surinam grass; assay type: in vivo, Brachiaria decumbens
How it was run: as §1

rape = test: Test B pre/postemergence rape; assay type: in vivo, Brassica napus
How it was run: as §1

corn = test: Test B pre/postemergence corn; assay type: in vivo, Zea mays
How it was run: as §1

crabgrass = test: Test B pre/postemergence crabgrass; assay type: in vivo, Digitaria sanguinalis
How it was run: as §1

bamyardgrass = test: Test B flood test barnyardgrass; assay type: in vivo, Echinochloa crus-galli
How it was run: (§2)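 Flood test on plants grown to the 2-leaf stage; treated plants kept in greenhouse twelve to sixteen days, then visually rated against controls on a 0 (no effect) to 10 (complete control) scale.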

soybean = test: Test B pre/postemergence soybean; assay type: in vivo, Glycine max
How it was run: as §1

velvetleaf = test: Test B pre/postemergence velvetleaf; assay type: in vivo, Abutilon theophrasti
How it was run: as §1

giant foxtail = test: Test B pre/postemergence giant foxtail; assay type: in vivo, Setaria faberii
How it was run: as §1

smallflower flatsedge = test: Test B flood test smallflower flatsedge; assay type: in vivo, Cyperus difformis
How it was run: as §2

duck salad = test: Test B flood test duck salad; assay type: in vivo, Heteranthera limosa
How it was run: as §2

wheat = test: Test B pre/postemergence wheat; assay type: in vivo, Triticum aestivum
How it was run: as §1

[1] = Postemergence, Rate 62 g/ha, scale 0 to 10, 0 is no effect, 10 is complete control
[2] = Postemergence, Rate 250 g/ha, scale 0 to 10, 0 no effect, 10 complete control
[3] = Preemergence, Rate 62 g/ha, scale 0 to 10, 0 is no effect, 10 is complete control
[4] = Preemergence, Rate 125 g/ha, scale 0 to 10 (0 no effect, 10 complete control)
[5] = Preemergence, Rate 250 g/ha, scale of 0 to 10 where 0 is no effect and 10 is complete control
[6] = Preemergence, Rate 500 g/ha, scale 0 (no effect) to 10 (complete control)
[7] = Rate 125 g/ha, Postemergence, scale 0 to 10, 0 no effect, 10 complete control
[8] = Rate 500 g/ha, Postemergence, 0 to 10 scale (0 no effect, 10 complete control)
[9] = Rate 125 g/ha, Postemergence section (flood test species), scale 0 to 10, 0 no effect, 10 complete control
[10] = Rate 500 g/ha, Postemergence section of Table B, 0 to 10 scale (0 no effect, 10 complete control)
[11] = flood test, listed under Postemergence, Rate 250 g/ha, scale 0 to 10, 0 no effect, 10 complete control

For `Cc1ccccc1-n1c(=O)on(C(=O)N(c2cc(OC(C)C)c(Cl)cc2Cl)C(C)C)c1=O` [Compound 42], the “Cocklebur plant response rating” value (cocklebur; [1]) was 0, the “Cocklebur plant response rating” value (cocklebur; [2]) was 0 and the “Plant response rating, Cocklebur” value (cocklebur; [3]) was 0. For the same molecule, the “Plant response rating, Cocklebur” value (cocklebur; [4]) was 0, the “Plant response rating, Cocklebur” value (cocklebur; [5]) was 0 and the “Cocklebur plant response rating” value (cocklebur; [6]) was 0. For the same molecule, the “Cocklebur plant response rating” value (cocklebur; [7]) was 0, the “Cocklebur plant response rating” value (cocklebur; [8]) was 0 and the “Blackgrass plant response rating” value (blackgrass; [1]) was 0. For the same molecule, the “Blackgrass plant response rating” value (blackgrass; [2]) was 0, the “Plant response rating, Blackgrass” value (blackgrass; [3]) was 0 and the “Plant response rating, Blackgrass” value (blackgrass; [4]) was 0. For the same molecule, the “Plant response rating, Blackgrass” value (blackgrass; [5]) was 0, the “Blackgrass plant response rating” value (blackgrass; [6]) was 0 and the “Blackgrass plant response rating” value (blackgrass; [7]) was 0. For the same molecule, the “Blackgrass plant response rating” value (blackgrass; [8]) was 0, the “Wild oats plant response rating” value (wild oat; [1]) was 0 and the “Wild oats plant response rating” value (wild oat; [2]) was 0. For the same molecule, the “Plant response rating, Wild oats” value (wild oat; [4]) was 0, the “Plant response rating, Wild oats” value (wild oat; [5]) was 0 and the “Wild oats plant response rating” value (wild oat; [6]) was 0. For the same molecule, the “Wild oats plant response rating” value (wild oat; [7]) was 0, the “Morningglory plant response rating” value (morningglory; [1]) was 0 and the “Morningglory plant response rating” value (morningglory; [2]) was 0. For the same molecule, the “Plant response rating, Morningglory” value (morningglory; [3]) was 0, the “Plant response rating, Morningglory” value (morningglory; [4]) was 0 and the “Plant response rating, Morningglory” value (morningglory; [5]) was 0. For the same molecule, the “Morningglory plant response rating” value (morningglory; [6]) was 0, the “Morningglory plant response rating” value (morningglory; [7]) was 0 and the “Morningglory plant response rating” value (morningglory; [8]) was 1. The “Bedstraw plant response rating” value (bedstraw; [1]) was 0, the “Bedstraw plant response rating” value (bedstraw; [2]) was 0 and the “Plant response rating, Bedstraw” value (bedstraw; [3]) was 0. The “Plant response rating, Bedstraw” value (bedstraw; [4]) was 0, the “Plant response rating, Bedstraw” value (bedstraw; [5]) was 0 and the “Bedstraw plant response rating” value (bedstraw; [6]) was 0. The “Bedstraw plant response rating” value (bedstraw; [7]) was 0, the “B. signalgrass plant response rating” value (surinam grass; [1]) was 0 and the “B. signalgrass plant response rating” value (surinam grass; [2]) was 0. For the same molecule, the “Plant response rating, B. signalgrass” value (surinam grass; [3]) was 0, the “Plant response rating, B. signalgrass” value (surinam grass; [4]) was 0 and the “Plant response rating, B. signalgrass” value (surinam grass; [5]) was 0. The “B. signalgrass plant response rating” value (surinam grass; [6]) was 0, the “B. signalgrass plant response rating” value (surinam grass; [7]) was 0 and the “B. signalgrass plant response rating” value (surinam grass; [8]) was 0. For the same molecule, the “Rape plant response rating” value (rape; [1]) was 0, the “Rape plant response rating” value (rape; [2]) was 0 and the “Plant response rating, Rape” value (rape; [3]) was 0. The “Plant response rating, Rape” value (rape; [4]) was 0, the “Plant response rating, Rape” value (rape; [5]) was 0 and the “Rape plant response rating” value (rape; [6]) was 0. For the same molecule, the “Rape plant response rating” value (rape; [7]) was 0, the “Rape plant response rating” value (rape; [8]) was 0 and the “Corn plant response rating” value (corn; [1]) was 0. The “Corn plant response rating” value (corn; [2]) was 0, the “Plant response rating, Corn” value (corn; [3]) was 0 and the “Plant response rating, Corn” value (corn; [4]) was 0. For the same molecule, the “Plant response rating, Corn” value (corn; [5]) was 0, the “Corn plant response rating” value (corn; [6]) was 0 and the “Corn plant response rating” value (corn; [7]) was 0. For the same molecule, the “Corn plant response rating” value (corn; [8]) was 0, the “Crabgrass plant response rating” value (crabgrass; [1]) was 0 and the “Crabgrass plant response rating” value (crabgrass; [2]) was 0. The “Plant response rating, Crabgrass” value (crabgrass; [3]) was 0, the “Plant response rating, Crabgrass” value (crabgrass; [4]) was 0 and the “Plant response rating, Crabgrass” value (crabgrass; [5]) was 0. For the same molecule, the “Crabgrass plant response rating” value (crabgrass; [6]) was 0, the “Crabgrass plant response rating” value (crabgrass; [7]) was 0 and the “Crabgrass plant response rating” value (crabgrass; [8]) was 0. The “Barnyardgrass plant response rating” value (bamyardgrass; [1]) was 0, the “Barnyardgrass plant response rating” value (bamyardgrass; [9]) was 0 and the “Barnyardgrass plant response rating” value (bamyardgrass; [10]) was 0. The “Barnyardgrass plant response rating” value (bamyardgrass; [11]) was 0, the “Soybean plant response rating” value (soybean; [1]) was 0 and the “Soybean plant response rating” value (soybean; [2]) was 0. For the same molecule, the “Plant response rating, Soybean” value (soybean; [3]) was 0, the “Plant response rating, Soybean” value (soybean; [4]) was 0 and the “Plant response rating, Soybean” value (soybean; [5]) was 0. For the same molecule, the “Soybean plant response rating” value (soybean; [6]) was 0, the “Soybean plant response rating” value (soybean; [7]) was 0 and the “Velvetleaf plant response rating” value (velvetleaf; [1]) was 0. For the same molecule, the “Velvetleaf plant response rating” value (velvetleaf; [2]) was 0, the “Plant response rating, Velvetleaf” value (velvetleaf; [3]) was 0 and the “Plant response rating, Velvetleaf” value (velvetleaf; [4]) was 0. The “Plant response rating, Velvetleaf” value (velvetleaf; [5]) was 0, the “Velvetleaf plant response rating” value (velvetleaf; [6]) was 0 and the “Velvetleaf plant response rating” value (velvetleaf; [7]) was 0. For the same molecule, the “Giant foxtail plant response rating” value (giant foxtail; [1]) was 0, the “Giant foxtail plant response rating” value (giant foxtail; [2]) was 0 and the “Plant response rating, Giant foxtail” value (giant foxtail; [3]) was 0. The “Plant response rating, Giant foxtail” value (giant foxtail; [4]) was 0, the “Plant response rating, Giant foxtail” value (giant foxtail; [5]) was 0 and the “Giant foxtail plant response rating” value (giant foxtail; [6]) was 0. The “Giant foxtail plant response rating” value (giant foxtail; [7]) was 0, the “Giant foxtail plant response rating” value (giant foxtail; [8]) was 0 and the “S. Flatsedge plant response rating” value (smallflower flatsedge; [1]) was 0. The “S. Flatsedge plant response rating” value (smallflower flatsedge; [9]) was 0, the “S. Flatsedge plant response rating” value (smallflower flatsedge; [11]) was 0 and the “Ducksalad plant response rating” value (duck salad; [1]) was 0. For the same molecule, the “Ducksalad plant response rating” value (duck salad; [9]) was 0, the “Ducksalad plant response rating” value (duck salad; [10]) was 0 and the “Ducksalad plant response rating” value (duck salad; [11]) was 0. For the same molecule, the “Wheat plant response rating” value (wheat; [1]) was 0, the “Wheat plant response rating” value (wheat; [2]) was 0 and the “Plant response rating, Wheat” value (wheat; [3]) was 0. The “Plant response rating, Wheat” value (wheat; [4]) was 0, the “Plant response rating, Wheat” value (wheat; [5]) was 0 and the “Wheat plant response rating” value (wheat; [6]) was 0. For the same molecule, the “Wheat plant response rating” value (wheat; [7]) was 0.
